Assay results from publication PMC10178848, “Modulating fast skeletal muscle contraction protects skeletal muscle in animal models of Duchenne muscular dystrophy” (The Journal of Clinical Investigation, 2023).
Like-named read-outs stand apart in the source and are kept apart here.

Legend:
mdx mice = assay: Evans blue dye muscle uptake; type: in vivo, mouse; settings: three-week treatment, nonexercised
Method: Prior to in vivo assessments, mice were dosed PO after a 2-hour fast with 10 mL/Kg suspensions. Grip strength and rotarod assessments were performed masked, 4 hours after dosing using published protocols ([66], [67]). Grip strength was performed with a Columbus Instruments Rodent Force Meter. Forepaw strength represented the average of 5 trials with 30-second rest periods, normalized by BW. Rotarod endurance was performed with a Columbus Instruments RotaMax. Mice were placed on the device drum at 1 rpm, which accelerated 1 rpm every 3 seconds to 12 rpm and a maximal time of 500 seconds. This was repeated 3 times with a 3-minute rest and total time reported. Voluntary wheel running performance was assessed with a customized system. Timestamped RPMs were measured 24 hours per day by infrared sensors, and a custom software calculated distance. Whole-body EBD was visualized after intravenous administration ([35]). EBD in PBS at 10 mg/mL was sterile filtered, and 50 μL/10 g BW was injected via tail vein. After 24 hours, animals were sacrificed, skin was removed and fixed in 4% formalin for 24 hours, and photographed using a Leica/Lumix camera.

[1] = system: dystrophic golden retriever (GRMD) dogs; assay: Plasma CK activity in GRMD dogs; type: in vivo, dog; settings: 7-month-old GRMD, 14 days oral gavage
Method: Plasma from mice and dogs were analyzed for CK activity using standard protocols (Pointe Scientific, Thermo Fisher Scientific).
Studies were performed in two phases. In the first phase, GRMD (n = 4, female, 7 months old) were dosed PO daily with vehicle for 2 weeks, followed by a suspension of EDG-5506 (3 mg/kg daily for 2 days, then 1 mg/kg daily for 2 weeks) and then with vehicle for 2 weeks. Blood was drawn at regular intervals (2–3 draws during the vehicle baseline, 5–8 draws during the dosing period, and 2 draws during the vehicle washout). In a separate dosing period, the same 4 dogs (10 months old) were administered vehicle for 14 days with regular blood draws (6–9 for each dog across the 14-day period). CK activity (Pointe Scientific, Thermo Fisher Scientific) was measured from plasma. In the second phase, the same 4 dogs (15 months old) were fitted with a collar-bound activity monitor (Fitbark 2, Fitbark Inc.) as described previously ([42]), and baseline activity was recorded for 27 days before daily oral gavage with vehicle for 22 days. Three dogs were then dosed in a similar pattern to phase 1 with EDG-5506 (2 mg/kg for 4 days and then 2 mg/kg every other day for 7 days). The fourth dog was dosed with vehicle over the same period. […] Average daily activity (“Fitbark points”) and time performing various activities (play, rest, active) were recorded.

[2] = target: T1, ABL1(E255K)-phosphorylated (Homo sapiens, UniProt P00519, E255K); assay: KINOMEscan scanEDGE; type: binding; settings: 20 uM
T1 construct: purchased Eurofins DiscoverX (KINOMEscan; SAFETYscan E/IC50 ELECT)

ACVR1B = target: T2, ACVR1B (Homo sapiens, UniProt P36896); assay: KINOMEscan scanEDGE; type: binding; settings: 20 uM
T2 construct: purchased Eurofins DiscoverX (KINOMEscan; SAFETYscan E/IC50 ELECT)

ADCK3 = target: T3, ADCK3 (Homo sapiens, UniProt Q8NI60); assay: KINOMEscan scanEDGE; type: binding; settings: 20 uM
T3 construct: purchased Eurofins DiscoverX (KINOMEscan; SAFETYscan E/IC50 ELECT)

EGFR(L858R) = target: T4, EGFR(L858R) (Homo sapiens, UniProt P00533, L858R); assay: KINOMEscan scanEDGE; type: binding; settings: 20 uM
T4 construct: purchased Eurofins DiscoverX (KINOMEscan; SAFETYscan E/IC50 ELECT)

FGFR3 = target: T5, FGFR3 (Homo sapiens, UniProt P22607); assay: KINOMEscan scanEDGE; type: binding; settings: 20 uM
T5 construct: purchased Eurofins DiscoverX (KINOMEscan; SAFETYscan E/IC50 ELECT)

MAP3K4 = target: T6, MAP3K4 (Homo sapiens, UniProt Q9Y6R4); assay: KINOMEscan scanEDGE; type: binding; settings: 20 uM
T6 construct: purchased Eurofins DiscoverX (KINOMEscan; SAFETYscan E/IC50 ELECT)

MARK3 = target: T7, MARK3 (Homo sapiens, UniProt P27448); assay: KINOMEscan scanEDGE; type: binding; settings: 20 uM
T7 construct: purchased Eurofins DiscoverX (KINOMEscan; SAFETYscan E/IC50 ELECT)

MKNK2 = target: T8, MKNK2 (Homo sapiens, UniProt Q9HBH9); assay: KINOMEscan scanEDGE; type: binding; settings: 20 uM
T8 construct: purchased Eurofins DiscoverX (KINOMEscan; SAFETYscan E/IC50 ELECT)

SNARK = target: T9, SNARK (Homo sapiens, UniProt Q9H093); assay: KINOMEscan scanEDGE; type: binding; settings: 20 uM
T9 construct: purchased Eurofins DiscoverX (KINOMEscan; SAFETYscan E/IC50 ELECT)

SRPK3 = target: T10, SRPK3 (Homo sapiens, UniProt Q9UPE1); assay: KINOMEscan scanEDGE; type: binding; settings: 20 uM
T10 construct: purchased Eurofins DiscoverX (KINOMEscan; SAFETYscan E/IC50 ELECT)

VEGFR2 = target: T11, VEGFR2 (Homo sapiens, UniProt P35968); assay: KINOMEscan scanEDGE; type: binding; settings: 20 uM
T11 construct: purchased Eurofins DiscoverX (KINOMEscan; SAFETYscan E/IC50 ELECT)

ADRA2A = target: T12, ADRA2A (Homo sapiens, UniProt P08913); assay: SAFETYscan cAMP; type: cell-based; design: dose or concentration left out as unconfirmed
T12 construct: purchased Eurofins DiscoverX (KINOMEscan; SAFETYscan E/IC50 ELECT)
Method: (§1) The specificity of EDG-5506 for fast skeletal myosin over other, unrelated proteins was confirmed using two off-target binding and activity screens. […] A second off-target panel (SAFETYscan E/IC50 ELECT, Eurofins DiscoverX) tested in vitro enzyme activity against 78 proteins, including GPCR, ion channel, kinases, nuclear hormone receptors, and transporters. In all assays, the IC50 of EDG-5506 was more than 10 μM (Supplemental Data File 1).

ADRB1 = target: T13, ADRB1 (Homo sapiens, UniProt P08588); assay: SAFETYscan cAMP; type: cell-based; design: dose or concentration left out as unconfirmed
T13 construct: purchased Eurofins DiscoverX (KINOMEscan; SAFETYscan E/IC50 ELECT)
Method: as §1

CHRM2 = target: T14, CHRM2 (Homo sapiens, UniProt P08172); assay: SAFETYscan cAMP; type: cell-based; design: dose or concentration left out as unconfirmed
T14 construct: purchased Eurofins DiscoverX (KINOMEscan; SAFETYscan E/IC50 ELECT)
Method: as §1

CNR1 = target: T15, CNR1 (Homo sapiens, UniProt P21554); assay: SAFETYscan cAMP; type: cell-based; design: dose or concentration left out as unconfirmed
T15 construct: purchased Eurofins DiscoverX (KINOMEscan; SAFETYscan E/IC50 ELECT)
Method: as §1

CNR2 = target: T16, CNR2 (Homo sapiens, UniProt P34972); assay: SAFETYscan cAMP; type: cell-based; design: dose or concentration left out as unconfirmed
T16 construct: purchased Eurofins DiscoverX (KINOMEscan; SAFETYscan E/IC50 ELECT)
Method: as §1

DRD2S = target: T17, DRD2S (Homo sapiens, UniProt P14416); assay: SAFETYscan cAMP; type: cell-based; design: dose or concentration left out as unconfirmed
T17 construct: purchased Eurofins DiscoverX (KINOMEscan; SAFETYscan E/IC50 ELECT)
Method: as §1

HRH2 = target: T18, HRH2 (Homo sapiens, UniProt P25021); assay: SAFETYscan cAMP; type: cell-based; design: dose or concentration left out as unconfirmed
T18 construct: purchased Eurofins DiscoverX (KINOMEscan; SAFETYscan E/IC50 ELECT)
Method: as §1

HTR1A = target: T19, HTR1A (Homo sapiens, UniProt P08908); assay: SAFETYscan cAMP; type: cell-based; design: dose or concentration left out as unconfirmed
T19 construct: purchased Eurofins DiscoverX (KINOMEscan; SAFETYscan E/IC50 ELECT)
Method: as §1

HTR1B = target: T20, HTR1B (Homo sapiens, UniProt P28222); assay: SAFETYscan cAMP; type: cell-based; design: dose or concentration left out as unconfirmed
T20 construct: purchased Eurofins DiscoverX (KINOMEscan; SAFETYscan E/IC50 ELECT)
Method: as §1

OPRK1 = target: T21, OPRK1 (Homo sapiens, UniProt P41145); assay: SAFETYscan cAMP; type: cell-based; design: dose or concentration left out as unconfirmed
T21 construct: purchased Eurofins DiscoverX (KINOMEscan; SAFETYscan E/IC50 ELECT)
Method: as §1

[3] = read-out: Max Response (%) (Agonist)
[4] = read-out: Max Response (%) (Antagonist)

T19 sequence (P08908 whole entry): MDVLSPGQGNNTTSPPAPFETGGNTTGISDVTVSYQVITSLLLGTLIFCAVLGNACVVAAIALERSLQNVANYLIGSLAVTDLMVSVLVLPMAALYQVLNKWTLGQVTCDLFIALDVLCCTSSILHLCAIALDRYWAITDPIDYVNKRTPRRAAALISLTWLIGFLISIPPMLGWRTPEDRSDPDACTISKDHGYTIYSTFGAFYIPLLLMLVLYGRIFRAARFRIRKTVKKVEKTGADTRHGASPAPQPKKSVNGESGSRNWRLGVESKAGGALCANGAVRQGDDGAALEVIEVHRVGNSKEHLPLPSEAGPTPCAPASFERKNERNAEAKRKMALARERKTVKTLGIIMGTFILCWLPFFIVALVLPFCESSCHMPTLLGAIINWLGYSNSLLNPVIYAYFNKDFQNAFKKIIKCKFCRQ
T12 sequence (P08913 whole entry): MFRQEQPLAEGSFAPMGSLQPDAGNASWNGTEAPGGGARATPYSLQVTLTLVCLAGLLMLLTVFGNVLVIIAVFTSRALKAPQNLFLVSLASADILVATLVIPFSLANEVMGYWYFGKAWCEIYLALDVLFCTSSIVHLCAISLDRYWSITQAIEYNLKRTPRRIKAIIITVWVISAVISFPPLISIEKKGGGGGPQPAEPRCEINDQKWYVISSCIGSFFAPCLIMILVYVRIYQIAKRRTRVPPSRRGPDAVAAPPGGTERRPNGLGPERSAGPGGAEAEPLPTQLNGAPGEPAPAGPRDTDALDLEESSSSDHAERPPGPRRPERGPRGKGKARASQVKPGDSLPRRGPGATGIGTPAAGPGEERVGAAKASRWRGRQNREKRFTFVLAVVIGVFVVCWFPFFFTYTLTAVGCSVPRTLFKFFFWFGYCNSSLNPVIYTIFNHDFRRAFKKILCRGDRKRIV
T18 sequence (P25021 whole entry): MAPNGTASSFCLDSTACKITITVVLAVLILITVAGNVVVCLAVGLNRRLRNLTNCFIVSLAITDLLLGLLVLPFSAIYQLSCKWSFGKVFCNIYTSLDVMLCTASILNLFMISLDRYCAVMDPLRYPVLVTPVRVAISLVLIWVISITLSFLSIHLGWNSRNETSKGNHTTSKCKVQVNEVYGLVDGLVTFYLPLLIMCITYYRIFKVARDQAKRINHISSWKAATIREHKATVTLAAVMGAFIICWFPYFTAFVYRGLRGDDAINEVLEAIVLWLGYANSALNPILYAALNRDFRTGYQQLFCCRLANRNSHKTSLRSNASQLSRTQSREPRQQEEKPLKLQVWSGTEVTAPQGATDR
T20 sequence (P28222 whole entry): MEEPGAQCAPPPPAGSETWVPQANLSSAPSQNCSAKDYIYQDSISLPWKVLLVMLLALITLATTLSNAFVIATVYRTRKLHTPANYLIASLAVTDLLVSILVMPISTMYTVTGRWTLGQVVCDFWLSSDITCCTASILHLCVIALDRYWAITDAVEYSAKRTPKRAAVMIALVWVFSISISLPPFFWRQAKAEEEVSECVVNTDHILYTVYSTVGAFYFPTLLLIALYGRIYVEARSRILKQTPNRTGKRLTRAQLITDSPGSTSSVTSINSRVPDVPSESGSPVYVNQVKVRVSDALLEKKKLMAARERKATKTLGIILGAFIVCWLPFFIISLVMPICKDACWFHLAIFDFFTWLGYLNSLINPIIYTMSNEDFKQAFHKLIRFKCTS
T14 sequence (P08172 whole entry): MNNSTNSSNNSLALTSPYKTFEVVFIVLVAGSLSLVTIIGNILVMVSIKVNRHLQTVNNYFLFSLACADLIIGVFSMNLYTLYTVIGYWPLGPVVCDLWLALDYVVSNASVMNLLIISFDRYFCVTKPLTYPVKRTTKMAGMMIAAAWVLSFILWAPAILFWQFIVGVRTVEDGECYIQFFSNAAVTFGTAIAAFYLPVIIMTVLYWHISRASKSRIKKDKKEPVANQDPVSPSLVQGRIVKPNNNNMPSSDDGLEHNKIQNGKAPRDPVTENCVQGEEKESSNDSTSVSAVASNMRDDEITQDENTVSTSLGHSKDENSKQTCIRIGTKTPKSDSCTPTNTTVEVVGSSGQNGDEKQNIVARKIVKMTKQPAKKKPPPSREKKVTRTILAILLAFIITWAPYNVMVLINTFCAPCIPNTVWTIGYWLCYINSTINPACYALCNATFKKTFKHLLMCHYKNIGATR
T15 sequence (P21554 whole entry): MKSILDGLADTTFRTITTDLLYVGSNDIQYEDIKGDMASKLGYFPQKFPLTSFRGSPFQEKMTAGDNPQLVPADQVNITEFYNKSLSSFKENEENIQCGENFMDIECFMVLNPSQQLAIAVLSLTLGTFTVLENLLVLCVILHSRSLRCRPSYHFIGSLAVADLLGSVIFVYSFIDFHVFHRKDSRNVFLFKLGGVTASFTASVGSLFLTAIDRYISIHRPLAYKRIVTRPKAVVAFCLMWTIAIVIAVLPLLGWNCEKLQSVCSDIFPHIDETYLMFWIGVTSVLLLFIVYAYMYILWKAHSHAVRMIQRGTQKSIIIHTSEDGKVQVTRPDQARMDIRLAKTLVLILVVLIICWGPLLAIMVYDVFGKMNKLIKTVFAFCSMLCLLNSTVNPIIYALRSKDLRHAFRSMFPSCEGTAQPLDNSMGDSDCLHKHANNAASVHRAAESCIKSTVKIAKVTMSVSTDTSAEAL
T13 sequence (P08588 whole entry): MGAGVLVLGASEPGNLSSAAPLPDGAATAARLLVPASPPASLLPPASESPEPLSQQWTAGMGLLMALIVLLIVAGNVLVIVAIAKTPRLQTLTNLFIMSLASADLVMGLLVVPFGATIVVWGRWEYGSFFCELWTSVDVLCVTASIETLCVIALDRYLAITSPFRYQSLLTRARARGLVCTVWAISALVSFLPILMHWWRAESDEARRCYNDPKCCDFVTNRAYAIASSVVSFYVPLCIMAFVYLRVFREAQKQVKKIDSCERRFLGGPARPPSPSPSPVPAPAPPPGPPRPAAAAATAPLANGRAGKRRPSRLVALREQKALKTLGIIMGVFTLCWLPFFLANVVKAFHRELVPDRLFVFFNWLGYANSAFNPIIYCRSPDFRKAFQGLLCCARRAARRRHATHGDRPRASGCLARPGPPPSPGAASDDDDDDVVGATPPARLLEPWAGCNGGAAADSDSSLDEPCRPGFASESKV
T16 sequence (P34972 whole entry): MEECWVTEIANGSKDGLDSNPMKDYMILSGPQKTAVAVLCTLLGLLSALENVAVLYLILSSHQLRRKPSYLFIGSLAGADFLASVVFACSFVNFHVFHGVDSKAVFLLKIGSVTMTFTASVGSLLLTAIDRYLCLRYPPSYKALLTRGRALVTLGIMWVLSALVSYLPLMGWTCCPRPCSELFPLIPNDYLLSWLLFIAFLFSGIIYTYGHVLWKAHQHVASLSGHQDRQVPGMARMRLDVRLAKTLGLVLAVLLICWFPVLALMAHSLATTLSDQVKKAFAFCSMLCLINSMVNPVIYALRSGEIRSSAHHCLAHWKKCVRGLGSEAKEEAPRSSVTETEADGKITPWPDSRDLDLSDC
T21 sequence (P41145 whole entry): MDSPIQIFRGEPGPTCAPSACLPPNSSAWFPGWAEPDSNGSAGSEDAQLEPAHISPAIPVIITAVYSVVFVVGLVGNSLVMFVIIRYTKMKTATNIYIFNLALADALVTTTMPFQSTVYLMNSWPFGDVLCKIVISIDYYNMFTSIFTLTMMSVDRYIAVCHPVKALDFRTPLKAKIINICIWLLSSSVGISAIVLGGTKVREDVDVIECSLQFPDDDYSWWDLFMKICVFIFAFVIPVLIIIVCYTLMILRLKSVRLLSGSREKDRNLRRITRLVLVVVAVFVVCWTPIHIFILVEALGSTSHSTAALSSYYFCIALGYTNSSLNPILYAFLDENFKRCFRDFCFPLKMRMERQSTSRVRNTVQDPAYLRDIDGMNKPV
T17 sequence (P14416 1-414 isoform P14416-2): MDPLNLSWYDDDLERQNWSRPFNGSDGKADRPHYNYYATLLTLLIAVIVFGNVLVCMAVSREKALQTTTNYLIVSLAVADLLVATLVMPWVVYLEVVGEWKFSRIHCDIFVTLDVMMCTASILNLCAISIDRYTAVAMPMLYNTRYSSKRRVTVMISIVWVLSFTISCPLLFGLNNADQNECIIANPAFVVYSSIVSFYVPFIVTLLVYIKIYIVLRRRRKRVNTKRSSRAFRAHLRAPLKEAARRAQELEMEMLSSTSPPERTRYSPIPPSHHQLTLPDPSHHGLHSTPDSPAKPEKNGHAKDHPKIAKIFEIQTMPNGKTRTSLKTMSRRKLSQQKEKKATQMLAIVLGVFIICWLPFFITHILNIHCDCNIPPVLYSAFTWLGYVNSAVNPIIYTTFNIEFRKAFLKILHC
T8 sequence (Q9HBH9 whole entry): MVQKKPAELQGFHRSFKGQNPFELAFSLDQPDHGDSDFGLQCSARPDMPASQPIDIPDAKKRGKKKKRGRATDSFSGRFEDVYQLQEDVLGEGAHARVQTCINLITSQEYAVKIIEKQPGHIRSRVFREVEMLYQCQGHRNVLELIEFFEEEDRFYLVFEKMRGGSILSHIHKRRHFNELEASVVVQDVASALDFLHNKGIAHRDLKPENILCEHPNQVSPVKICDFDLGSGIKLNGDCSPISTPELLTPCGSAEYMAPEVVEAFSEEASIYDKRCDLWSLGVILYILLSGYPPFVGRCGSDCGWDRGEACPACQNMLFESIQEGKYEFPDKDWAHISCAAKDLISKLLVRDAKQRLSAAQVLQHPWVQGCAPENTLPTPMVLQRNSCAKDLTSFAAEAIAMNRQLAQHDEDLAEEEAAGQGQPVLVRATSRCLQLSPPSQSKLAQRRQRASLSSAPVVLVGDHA

O=c1ccc(-c2cnc(OCC(F)(F)F)nc2)nn1Cc1cncc(F)c1 [EDG-5506]
Evans blue dye-positive fibers (mdx mice): reduced blue fibers close to the level seen in WT mice
decrease in CK [1]: more than 50%
binding, % of control [2]: 83 % of control
binding, % of control (ACVR1B): 91 % of control
binding, % of control (ADCK3): 93 % of control
binding, % of control (EGFR(L858R)): 95 % of control
binding, % of control (FGFR3): 96 % of control
binding, % of control (MAP3K4): 90 % of control
binding, % of control (MARK3): 85 % of control
binding, % of control (MKNK2): 92 % of control
binding, % of control (SNARK): 100 % of control
binding, % of control (SRPK3): 95 % of control
binding, % of control (VEGFR2): 77 % of control
Emax (ADRA2A; [3]): 19.2%
Emax (ADRA2A; [4]): 0.88%
Emax (ADRB1; [3]): 2.02%
Emax (ADRB1; [4]): 9.68%
Emax (CHRM2; [3]): 21.5%
Emax (CHRM2; [4]): 0%
Emax (CNR1; [3]): 14.8%
Emax (CNR1; [4]): 3.38%
Emax (CNR2; [3]): 27.5%
Emax (CNR2; [4]): 0%
Emax (DRD2S; [3]): 7.3%
Emax (DRD2S; [4]): 1.39%
Emax (HRH2; [3]): 0%
Emax (HRH2; [4]): 15%
Emax (HTR1A; [3]): 0%
Emax (HTR1A; [4]): 1.51%
Emax (HTR1B; [3]): 0%
Emax (HTR1B; [4]): 4.17%
Emax (OPRK1; [3]): 9.76%
Emax (OPRK1; [4]): 0.05%
